# Test results: ChEMBL document CHEMBL1201862, “PubChem BioAssay data set” (2004)
#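 The compound was tested at five concentrations on cells cultured in 96-well plates, with a 48-hour exposure period. Here, GI50 denotes the concentration required for 50% inhibition of growth.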 Activity calls are given as the source filed them. No stated cut-off is given here; in the data, active = GI50 up to about 1.1 µM and inactive = higher.
# Assays:
# Experiment in all cases: NCI tumour cell line growth inhibition, 48 h
# 786-0 = system: 786-0
# HCC 2998 = system: HCC 2998
# Hs-578T = system: Hs-578T
# IGROV-1 = system: IGROV-1
# MCF7 = system: MCF7
# MDA-MB-231 = system: MDA-MB-231
# NCI-H226 = system: NCI-H226
# OVCAR-3 = system: OVCAR-3
# OVCAR-8 = system: OVCAR-8
# RPMI-8226 = system: RPMI-8226
# SK-MEL-28 = system: SK-MEL-28
# SK-OV-3 = system: SK-OV-3
# SN12C = system: SN12C
# SNB-19 = system: SNB-19
# SR = system: SR
# T47D = system: T47D
# UO-31 = system: UO-31
# CAKI-1 = system: CAKI-1
# SK-MEL-2 = system: SK-MEL-2
# UACC-257 = system: UACC-257
SMILES,GI50 (786-0),GI50 (HCC 2998),GI50 (Hs-578T),GI50 (IGROV-1),GI50 (MCF7),GI50 (MDA-MB-231),GI50 (NCI-H226),GI50 (OVCAR-3),GI50 (OVCAR-8),GI50 (RPMI-8226),GI50 (SK-MEL-28),GI50 (SK-OV-3),GI50 (SN12C),GI50 (SNB-19),GI50 (SR),GI50 (T47D),GI50 (UO-31),GI50 (CAKI-1),GI50 (SK-MEL-2),GI50 (UACC-257)
CC(C)=CCNc1ncnc2c1ncn2CCC(=O)OC(C)(C)C,> 100 µM (inactive),> 100 µM (inactive),12.4 µM (inactive),> 100 µM (inactive),> 100 µM (inactive),> 100 µM (inactive),> 100 µM (inactive),> 100 µM (inactive),> 100 µM (inactive),72.3 µM (inactive),> 100 µM (inactive),26.2 µM (inactive),> 100 µM (inactive),> 100 µM (inactive),52.2 µM (inactive),24.8 µM (inactive),22.7 µM (inactive),–,–,–
Cc1cn(Cc2cccc(C3=NCCCN3)c2)c(=O)n(Cc2cccc(C3=NCCCN3)c2)c1=O,> 100 µM (inactive),> 100 µM (inactive),> 100 µM (inactive),> 100 µM (inactive),> 100 µM (inactive),> 100 µM (inactive),–,> 100 µM (inactive),> 100 µM (inactive),> 100 µM (inactive),> 100 µM (inactive),> 100 µM (inactive),25.4 µM (inactive),> 100 µM (inactive),> 100 µM (inactive),> 100 µM (inactive),> 100 µM (inactive),> 100 µM (inactive),> 100 µM (inactive),> 100 µM (inactive)
CC(O)(CNS(=O)(=O)c1ccccc1)c1ccccc1 (stereo unspecified),> 100 µM (inactive),–,> 100 µM (inactive),> 100 µM (inactive),> 100 µM (inactive),> 100 µM (inactive),> 100 µM (inactive),> 100 µM (inactive),> 100 µM (inactive),> 100 µM (inactive),> 100 µM (inactive),> 100 µM (inactive),> 100 µM (inactive),> 100 µM (inactive),> 100 µM (inactive),> 100 µM (inactive),> 100 µM (inactive),> 100 µM (inactive),> 100 µM (inactive),–
NC(=O)CC(N)c1nnn[nH]1 (stereo unspecified),> 100 µM (inactive),–,> 100 µM (inactive),> 100 µM (inactive),> 100 µM (inactive),> 100 µM (inactive),> 100 µM (inactive),> 100 µM (inactive),> 100 µM (inactive),> 100 µM (inactive),> 100 µM (inactive),> 100 µM (inactive),> 100 µM (inactive),> 100 µM (inactive),> 100 µM (inactive),> 100 µM (inactive),> 100 µM (inactive),> 100 µM (inactive),> 100 µM (inactive),> 100 µM (inactive)
CC(O[Si](C)(C)C(C)(C)C)[C@H](NC(=O)OCC(Cl)(Cl)Cl)C(=O)O (stereo partly specified),> 100 µM (inactive),> 100 µM (inactive),> 100 µM (inactive),> 100 µM (inactive),> 100 µM (inactive),> 100 µM (inactive),> 100 µM (inactive),79.6 µM (inactive),> 100 µM (inactive),84.7 µM (inactive),> 100 µM (inactive),> 100 µM (inactive),> 100 µM (inactive),> 100 µM (inactive),> 100 µM (inactive),> 100 µM (inactive),> 100 µM (inactive),–,–,> 100 µM (inactive)
O=C1C=CC(=NNc2ccccc2)C=CC1=O,18.4 µM (inactive),–,11 µM (inactive),7.94 µM (inactive),19.3 µM (inactive),14.9 µM (inactive),11.7 µM (inactive),10.3 µM (inactive),20.4 µM (inactive),–,14.4 µM (inactive),26 µM (inactive),16.7 µM (inactive),18.9 µM (inactive),1.72 µM (inactive),10.2 µM (inactive),17.8 µM (inactive),13.9 µM (inactive),15.1 µM (inactive),18.8 µM (inactive)
NC1CC(=O)c2csc(Cl)c21 (stereo unspecified),1.55 µM (inactive),17.6 µM (inactive),35.5 µM (inactive),15.7 µM (inactive),17.5 µM (inactive),9.46 µM (inactive),37 µM (inactive),6.38 µM (inactive),6.61 µM (inactive),0.234 µM (active),17.1 µM (inactive),17.3 µM (inactive),5.42 µM (inactive),17.5 µM (inactive),–,3.98 µM (inactive),5.75 µM (inactive),1.86 µM (inactive),12.9 µM (inactive),14.9 µM (inactive)
O=C1N/C(=N/N=C/c2cccs2)N/C1=C\c1ccco1,51.6 µM (inactive),–,29.3 µM (inactive),26.1 µM (inactive),30.3 µM (inactive),> 100 µM (inactive),21.3 µM (inactive),22.5 µM (inactive),37 µM (inactive),23.7 µM (inactive),76.9 µM (inactive),21.9 µM (inactive),43.8 µM (inactive),81.5 µM (inactive),–,> 100 µM (inactive),> 100 µM (inactive),> 100 µM (inactive),7.29 µM (inactive),55.7 µM (inactive)
CCCCc1nc(C)oc1C(C)C,> 100 µM (inactive),> 100 µM (inactive),> 100 µM (inactive),> 100 µM (inactive),> 100 µM (inactive),> 100 µM (inactive),40.7 µM (inactive),> 100 µM (inactive),> 100 µM (inactive),–,> 100 µM (inactive),> 100 µM (inactive),> 100 µM (inactive),–,–,> 100 µM (inactive),> 100 µM (inactive),> 100 µM (inactive),–,> 100 µM (inactive)
Cc1ccc2cccc3c2c1CC1(C3=O)S(=O)(=O)OCCOS1(=O)=O,> 100 µM (inactive),> 100 µM (inactive),> 100 µM (inactive),> 100 µM (inactive),> 100 µM (inactive),> 100 µM (inactive),> 100 µM (inactive),> 100 µM (inactive),> 100 µM (inactive),> 100 µM (inactive),> 100 µM (inactive),> 100 µM (inactive),> 100 µM (inactive),> 100 µM (inactive),–,> 100 µM (inactive),> 100 µM (inactive),> 100 µM (inactive),> 100 µM (inactive),> 100 µM (inactive)
O=S(=O)(O)CCCC1S(=O)(=O)OCCOS1(=O)=O,> 100 µM (inactive),> 100 µM (inactive),> 100 µM (inactive),> 100 µM (inactive),> 100 µM (inactive),> 100 µM (inactive),> 100 µM (inactive),> 100 µM (inactive),> 100 µM (inactive),> 100 µM (inactive),> 100 µM (inactive),> 100 µM (inactive),–,> 100 µM (inactive),> 100 µM (inactive),> 100 µM (inactive),> 100 µM (inactive),> 100 µM (inactive),–,> 100 µM (inactive)
O=C1c2ccccc2-c2cc3ccccc3c(=O)n21,68.5 µM (inactive),> 100 µM (inactive),> 100 µM (inactive),> 100 µM (inactive),29 µM (inactive),–,–,> 100 µM (inactive),> 100 µM (inactive),71.1 µM (inactive),> 100 µM (inactive),–,> 100 µM (inactive),> 100 µM (inactive),> 100 µM (inactive),> 100 µM (inactive),49.1 µM (inactive),–,> 100 µM (inactive),> 100 µM (inactive)
COc1ccc(C2=NN(C(=O)c3ccc(Cl)cc3)C(O)(c3cc(F)c(Cl)cc3Cl)C2)cc1OC (stereo unspecified),17.8 µM (inactive),8.24 µM (inactive),24 µM (inactive),35.1 µM (inactive),4.61 µM (inactive),> 100 µM (inactive),> 100 µM (inactive),41.8 µM (inactive),58.1 µM (inactive),6.03 µM (inactive),> 100 µM (inactive),> 100 µM (inactive),–,–,–,6.27 µM (inactive),3.08 µM (inactive),18.6 µM (inactive),78.7 µM (inactive),31.3 µM (inactive)
CCOC(=O)/C(C(=O)Nc1cccc(C(F)(F)F)c1)=C(/N)N1CCCC1,52.6 µM (inactive),> 100 µM (inactive),27.2 µM (inactive),> 100 µM (inactive),63 µM (inactive),42.4 µM (inactive),29.2 µM (inactive),> 100 µM (inactive),38 µM (inactive),> 100 µM (inactive),> 100 µM (inactive),52.4 µM (inactive),41.9 µM (inactive),> 100 µM (inactive),–,47.8 µM (inactive),–,> 100 µM (inactive),> 100 µM (inactive),> 100 µM (inactive)
Cc1cc2ccccc2n2c1nc1ccc(O)cc12,> 10 µM (inactive),> 10 µM (inactive),> 10 µM (inactive),> 10 µM (inactive),> 10 µM (inactive),> 10 µM (inactive),–,> 10 µM (inactive),7.29 µM (inactive),> 10 µM (inactive),> 10 µM (inactive),> 10 µM (inactive),9.35 µM (inactive),> 10 µM (inactive),9.73 µM (inactive),> 10 µM (inactive),–,> 10 µM (inactive),> 10 µM (inactive),> 10 µM (inactive)
O=C1Nc2ccccc2/C1=C\c1c(-c2ccccc2)nc2n1CCS2,19.6 µM (inactive),16.4 µM (inactive),23.4 µM (inactive),23 µM (inactive),12.5 µM (inactive),21.4 µM (inactive),–,15.6 µM (inactive),31.3 µM (inactive),22.6 µM (inactive),31.2 µM (inactive),21.4 µM (inactive),22.1 µM (inactive),28.5 µM (inactive),–,18.7 µM (inactive),5.68 µM (inactive),21.3 µM (inactive),13.3 µM (inactive),19.5 µM (inactive)
